Test results as given in ChEMBL document CHEMBL3808318, “Design, synthesis and inhibitory activity against human dihydroorotate dehydrogenase (hDHODH) of 1,3-benzoazole derivatives bearing amide units” (Bioorg Med Chem Lett, 2016).
pIC50: −log10 of the molar value.

Target: T1, Dihydroorotate dehydrogenase (quinone), mitochondrial (Homo sapiens, UniProt Q02127)
Test: Potency index, ratio of A771726 IC50 to compound IC50 for human DHODH

T1 sequence (Q02127 whole entry): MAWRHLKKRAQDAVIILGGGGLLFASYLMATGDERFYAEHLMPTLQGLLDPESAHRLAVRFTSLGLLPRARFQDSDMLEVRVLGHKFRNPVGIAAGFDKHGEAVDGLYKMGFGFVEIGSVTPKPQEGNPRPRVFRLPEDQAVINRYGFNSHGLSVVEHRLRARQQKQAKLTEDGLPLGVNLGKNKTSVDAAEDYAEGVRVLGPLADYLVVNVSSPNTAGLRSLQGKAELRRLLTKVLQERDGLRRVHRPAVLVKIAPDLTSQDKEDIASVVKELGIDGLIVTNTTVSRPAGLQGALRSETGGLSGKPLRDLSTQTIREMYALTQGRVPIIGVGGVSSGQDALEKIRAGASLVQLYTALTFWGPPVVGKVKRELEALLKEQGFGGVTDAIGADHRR

Work on COc1ccccc1NC(=O)c1cccc2nc(-c3cc(Br)nn3-c3ncccc3Cl)[nH]c12 yielded a Ratio IC50 of 2.

Target: T1, Dihydroorotate dehydrogenase (quinone), mitochondrial
Test: Inhibition of human DHODH assessed as decrease in DCIP using dihydroorotate as substrate measured every 30 seconds for 6 mins

Going from COc1ccc(C(F)(F)F)cc1NC(=O)c1cccc2nc(-c3cc(Br)nn3-c3ncccc3Cl)[nH]c12 to COc1ccccc1NC(=O)c1cccc2nc(-c3cc(Br)nn3-c3ncccc3Cl)[nH]c12, the pIC50 rises from 5.31 to 6.75 (1.44 log units). The second is the more potent here.

Cc1ccccc1NC(=O)c1cccc2nc(-c3cc(Br)nn3-c3ncccc3Cl)[nH]c12 was tested, and the pIC50 was 6.17.

Target: T1, Dihydroorotate dehydrogenase (quinone), mitochondrial
Test: Inhibition of human DHODH assessed as decrease in DCIP at 10 uM using dihydroorotate as substrate measured every 30 seconds for 6 mins

First: O=C(Nc1ccccc1Br)c1cccc2nc(-c3cc(Br)nn3-c3ncccc3Cl)[nH]c12
Second: O=C(Nc1ccccc1F)c1cccc2nc(-c3cc(Br)nn3-c3ncccc3Cl)[nH]c12
The inhibition of the first is lower: 27.6% for the first, 38.8% for the second.

First: CCNC(=O)c1cccc2nc(-c3cc(Br)nn3-c3ncccc3Cl)[nH]c12
Second: CCCNC(=O)c1cccc2nc(-c3cc(Br)nn3-c3ncccc3Cl)[nH]c12
The inhibition of the first is higher: 24.9% for the first, 23.4% for the second.

Going from O=C(Nc1ccc(C(F)(F)F)cc1)c1cccc2nc(-c3cc(Br)nn3-c3ncccc3Cl)[nH]c12 to O=C(NCc1ccc(C(F)(F)F)cc1)c1cccc2nc(-c3cc(Br)nn3-c3ncccc3Cl)[nH]c12, the inhibition falls from 36.3% to 32%.

First: Cc1ccc(NC(=O)c2cccc3nc(-c4cc(Br)nn4-c4ncccc4Cl)[nH]c23)c(C)c1
Second: Cc1ccccc1NC(=O)c1cccc2nc(-c3cc(Br)nn3-c3ncccc3Cl)[nH]c12
The inhibition of the first is lower: 48.8% for the first, 73.9% for the second.

Compared with O=C(Nc1ccc(F)c(F)c1F)c1cccc2nc(-c3cc(Br)nn3-c3ncccc3Cl)[nH]c12, O=C(Nc1ccc(F)cc1F)c1cccc2nc(-c3cc(Br)nn3-c3ncccc3Cl)[nH]c12 is lower in inhibition: 31.9% for the first, 26.9% for the second.

First: O=C(NCc1ccccc1)c1cccc2nc(-c3cc(Br)nn3-c3ncccc3Cl)[nH]c12
Second: O=C(Nc1ccccc1)c1cccc2nc(-c3cc(Br)nn3-c3ncccc3Cl)[nH]c12
The inhibition of the first is lower: 34.9% for the first, 49.4% for the second.

Going from CNC(=O)c1cccc2nc(-c3cc(Br)nn3-c3ncccc3Cl)[nH]c12 to Cc1cccc(NC(=O)c2cccc3nc(-c4cc(Br)nn4-c4ncccc4Cl)[nH]c23)c1, the inhibition rises from 14.1% to 18.9%.

Compared with COc1ccc(C(F)(F)F)cc1NC(=O)c1cccc2nc(-c3cc(Br)nn3-c3ncccc3Cl)[nH]c12, COc1ccccc1NC(=O)c1cccc2nc(-c3cc(Br)nn3-c3ncccc3Cl)[nH]c12 is higher in inhibition: 55.2% for the first, 60.5% for the second.

Compared with O=C(NCc1c(F)ccc(F)c1F)c1cccc2nc(-c3cc(Br)nn3-c3ncccc3Cl)[nH]c12, O=C(NCc1ccc(Cl)cc1)c1cccc2nc(-c3cc(Br)nn3-c3ncccc3Cl)[nH]c12 is higher in inhibition: 43% for the first, 44% for the second.

Going from O=C(Nc1ccccc1I)c1cccc2nc(-c3cc(Br)nn3-c3ncccc3Cl)[nH]c12 to COc1ccc(NC(=O)c2cccc3nc(-c4cc(Br)nn4-c4ncccc4Cl)[nH]c23)cc1, the inhibition rises from 24.8% to 36.1%.

Compared with CCCNC(=O)c1cccc2nc(-c3cc(Br)nn3-c3ncccc3Cl)oc12, CCCNC(=O)c1cccc2oc(-c3cc(Br)nn3-c3ncccc3Cl)nc12 is higher in inhibition: 26.6% for the first, 30.1% for the second.

Going from COc1ccc(NC(=O)c2cccc3nc(-c4cc(Br)nn4-c4ncccc4Cl)[nH]c23)c(OC)c1 to COc1cccc(OC)c1NC(=O)c1cccc2nc(-c3cc(Br)nn3-c3ncccc3Cl)[nH]c12, the inhibition falls from 1.3% to 0%.

Going from C/C(O)=C(\C#N)C(=O)Nc1ccc(C(F)(F)F)cc1 to COc1cccc(F)c1NC(=O)c1cccc2nc(-c3cc(Br)nn3-c3ncccc3Cl)[nH]c12, the inhibition falls from 64% to 15.7%.

Compared with O=C(NCc1ccccn1)c1cccc2nc(-c3cc(Br)nn3-c3ncccc3Cl)[nH]c12, Cc1ccc(CNC(=O)c2cccc3nc(-c4cc(Br)nn4-c4ncccc4Cl)[nH]c23)cc1 is lower in inhibition: 27.6% for the first, 22.7% for the second.

In the case of COc1cccc(C)c1NC(=O)c1cccc2nc(-c3cc(Br)nn3-c3ncccc3Cl)[nH]c12, the inhibition was 9.43%.
